One test relates to CmSTC3. In words: malachite green phosphate release assay, coupled to yeast pyrophosphatase. In kind it is biochemical, Cubamyces menziesii. Particulars: 5 mM MgCl2, Tris-HCl/MES/CAPS buffer, pH 7.8; FDP range 3.125 to 50 or 75 μM.
A further test relates to CmSTC1. The description is as above. In kind it is biochemical, Cubamyces menziesii. Particulars: 5 mM MgCl2, Tris-HCl/MES/CAPS buffer, pH 7.8; FDP range 3.125 to 50 or 75 μM.

Data on one compound can be found in PMC12376244 (Chembiochem, 2025).

The term Km denotes the concentration of substrate that gives half-maximal velocity.

With `CC(C)=CCC/C(C)=C/CC/C(C)=C/COP(=O)(O)OP(=O)(O)O` [FDP], the figures for the Km in the test on CmSTC3 and in the test on CmSTC1 were 19.9 µM and 68.2 µM, respectively.
